Entries after “also recorded” stand apart in the source; their conditions may differ.
Tests used:
NCI-H1975 = experiment: Cell proliferation assay (MTT) against cancer cell line NCI-H1975; assay type: cell-based; conditions: Homo sapiens, NCI-H1975, 72 hours treatment, quantity not given
Description: A Representative Number of Compounds were Assayed Against Cancer Cell Lines NCI-H1975, Using the Cell Proliferation Assay:
1. 5×10^3 cells per well in 100 μl of medium were seeded in 96-well plate, while the medium contained 5% FBS
2. 24 hours later, 100 μl fresh medium was added with various concentrations of compounds into each well, while the medium here was free of FBS
3. After the cells were treated with compounds for 72 hours, 20 μl MTT (5 mg/ml) was added into each well, and then the assay plate was incubated at 37° C. for 4 more hours.
4. The assay plate was centrifuged at 800 g for 10 min. The medium was aspirated, 150 μl DMSO was added into each well. The plate was gently shaken for 10 min.
5. The absorbance at 570 nm was measured on the plate reader.

[1] = system: NCI-H1975 cell line xenograft; experiment: Subcutaneous NCI-H1975 cell line xenograft model in nude mice; assay type: in vivo; conditions: for Tumor growth inhibition (TGI, %) in NCI-H1975 xenograft model: nude mice; for Efficacy in the NCI-H1975 xenograft study (in words): Day 14
Description: A representative protocol for the in vivo experiment is as follows to establish the subcutaneous NCI-H1975 cell line xenograft model in nude mice and to evaluate the in vivo therapeutic efficacy of the compounds: H1975 cells were cultured in RPMI1640 containing 10% fetal bovine serum, 1% L-glutamine, 100 U/mL penicillinG and 100 μg/mL streptomycin. Cells in logarithmic growth phase were harvested and resuspended in 1×PBS for implantation. Tumor xenografts were established by injecting tumor cells 5×10^6/mouse into the right flank by sc under sterile conditions. When the tumors reached an appropriate size (100-200 mm^3), mice were randomized into 6 mice per group (8 mice in control group). The tumors were measured using a caliper in two dimensions, length (a), and width (b). Tumor volumes were estimated from measurements of two diameters of the individual tumors as follows: Tumor Volume (mm^3)=(a×b^2)/2 The tumor sizes and animal body weights were measured twice a week. Mice were observed daily for clinical signs. Blood samples were collected 2 hours after the last treatment, plasma samples were prepared and stored at −80° C. Tumor tissues were separated, weighed, taken picture, and subsequently stored at −80° C. for further analysis. All animal experiments were performed in accordance with the Guidelines for Use and Care of Animals of the University of Traditional Medicine. The parameters for in vivo efficacy evaluation were calculated according to the guidance of SFDA. Percent T/C (%) was calculated with the following formula: T/C(%)=(TRTV/CRTV)×100%, where TRTV and CRTV stand for relative tumor volume in treatment group and vehicle control group, respectively. Relative tumor volume (RTV) was calculated using the formula: RTV=Vt/V0, where Vt represents volume on testing day, and V0 represents volume on first day of treatment. […] At the study endpoint, after blood collection, mice were practised euthanasia by cervical dislocation, the tumor tissue was collected first, then the abdominal cavity was cut open, liver and spleen were excised, and weighted after the gallblader was removed respectively. Organ weights between the treated versus the control groups were compared.

EGFR (T790M/L858R) = EGFR (T790M/L858R) (Homo sapiens (Human), UniProt P00533, L858R/T790M); experiment: In vitro EGFR (T790M/L858R) kinase binding assay (Kd, qPCR readout)
Chain of EGFR (T790M/L858R) (P00533 25-1210 T790M/L858R): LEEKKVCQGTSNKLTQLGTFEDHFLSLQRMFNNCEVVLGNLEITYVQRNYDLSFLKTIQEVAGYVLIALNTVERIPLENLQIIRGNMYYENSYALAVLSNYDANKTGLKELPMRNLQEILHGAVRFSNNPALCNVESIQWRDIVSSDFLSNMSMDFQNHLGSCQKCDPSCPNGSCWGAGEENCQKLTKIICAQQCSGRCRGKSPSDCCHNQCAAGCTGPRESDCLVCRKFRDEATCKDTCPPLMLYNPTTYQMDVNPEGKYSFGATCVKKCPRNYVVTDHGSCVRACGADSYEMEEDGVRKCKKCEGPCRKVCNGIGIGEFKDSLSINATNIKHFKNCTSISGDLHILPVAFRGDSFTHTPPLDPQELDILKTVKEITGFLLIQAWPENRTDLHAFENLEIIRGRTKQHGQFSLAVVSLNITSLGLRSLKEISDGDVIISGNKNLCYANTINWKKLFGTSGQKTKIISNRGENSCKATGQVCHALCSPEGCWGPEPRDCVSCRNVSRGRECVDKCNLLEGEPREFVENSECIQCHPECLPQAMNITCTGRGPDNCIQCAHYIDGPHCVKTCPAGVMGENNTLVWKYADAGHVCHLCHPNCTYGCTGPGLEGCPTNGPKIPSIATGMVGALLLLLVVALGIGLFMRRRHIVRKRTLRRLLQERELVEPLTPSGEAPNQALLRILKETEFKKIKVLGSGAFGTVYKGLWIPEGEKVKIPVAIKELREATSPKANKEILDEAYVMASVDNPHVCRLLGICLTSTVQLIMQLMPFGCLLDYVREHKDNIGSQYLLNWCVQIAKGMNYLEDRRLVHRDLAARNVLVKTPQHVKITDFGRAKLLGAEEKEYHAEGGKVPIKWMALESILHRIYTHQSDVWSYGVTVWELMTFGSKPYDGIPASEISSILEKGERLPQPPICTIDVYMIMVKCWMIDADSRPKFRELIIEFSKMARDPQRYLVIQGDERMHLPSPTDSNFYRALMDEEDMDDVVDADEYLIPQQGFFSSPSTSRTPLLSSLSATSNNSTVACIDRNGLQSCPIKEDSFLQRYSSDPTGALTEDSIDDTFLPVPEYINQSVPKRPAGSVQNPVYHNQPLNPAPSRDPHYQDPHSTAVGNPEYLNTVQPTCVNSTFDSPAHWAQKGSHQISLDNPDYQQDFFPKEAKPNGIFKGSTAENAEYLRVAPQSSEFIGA
Description: (§1) Kinase-tagged T7 phage strains were prepared in an E. coli host derived from the BL21 strain. E. coli were grown to log-phase and infected with T7 phage and incubated with shaking at 32° C. until lysis. The lysates were centrifuged and filtered to remove cell debris. The remaining kinases were produced in HEK-293 cells and subsequently tagged with DNA for qPCR detection. Streptavidin-coated magnetic beads were treated with biotinylated small molecule ligands for 30 minutes at room temperature to generate affinity resins for kinase assays. The liganded beads were blocked with excess biotin and washed with blocking buffer (SeaBlock (Pierce), 1% BSA, 0.05% Tween 20, 1 mM DTT) to remove unbound ligand and to reduce non-specific binding. […] All reactions were performed in polystyrene 96-well plates in a final volume of 0.135 ml. […] The kinase concentration in the eluates was measured by qPCR.
(§2) An 11-point 3-fold serial dilution of each test compound was prepared in 100% DMSO at 100× final test concentration and subsequently diluted to 1× in the assay (final DMSO concentration=1%). Kds were determined using a compound top concentration=10,000 nM.
Binding constants (Kds) were calculated with a standard dose-response curve using the Hill equation: Response=Background+(Signal−Background)/(1+(Kd^Hill Slope/Dose^Hill Slope)). The Hill Slope was set to −1. Curves were fitted using a non-linear least square fit with the Levenberg-Marquardt algorithm.

EGFR = EGFR (Homo sapiens (Human), UniProt P00533); experiment: In vitro EGFR kinase binding assay (Kd), similar condition
Chain of EGFR (P00533 25-1210): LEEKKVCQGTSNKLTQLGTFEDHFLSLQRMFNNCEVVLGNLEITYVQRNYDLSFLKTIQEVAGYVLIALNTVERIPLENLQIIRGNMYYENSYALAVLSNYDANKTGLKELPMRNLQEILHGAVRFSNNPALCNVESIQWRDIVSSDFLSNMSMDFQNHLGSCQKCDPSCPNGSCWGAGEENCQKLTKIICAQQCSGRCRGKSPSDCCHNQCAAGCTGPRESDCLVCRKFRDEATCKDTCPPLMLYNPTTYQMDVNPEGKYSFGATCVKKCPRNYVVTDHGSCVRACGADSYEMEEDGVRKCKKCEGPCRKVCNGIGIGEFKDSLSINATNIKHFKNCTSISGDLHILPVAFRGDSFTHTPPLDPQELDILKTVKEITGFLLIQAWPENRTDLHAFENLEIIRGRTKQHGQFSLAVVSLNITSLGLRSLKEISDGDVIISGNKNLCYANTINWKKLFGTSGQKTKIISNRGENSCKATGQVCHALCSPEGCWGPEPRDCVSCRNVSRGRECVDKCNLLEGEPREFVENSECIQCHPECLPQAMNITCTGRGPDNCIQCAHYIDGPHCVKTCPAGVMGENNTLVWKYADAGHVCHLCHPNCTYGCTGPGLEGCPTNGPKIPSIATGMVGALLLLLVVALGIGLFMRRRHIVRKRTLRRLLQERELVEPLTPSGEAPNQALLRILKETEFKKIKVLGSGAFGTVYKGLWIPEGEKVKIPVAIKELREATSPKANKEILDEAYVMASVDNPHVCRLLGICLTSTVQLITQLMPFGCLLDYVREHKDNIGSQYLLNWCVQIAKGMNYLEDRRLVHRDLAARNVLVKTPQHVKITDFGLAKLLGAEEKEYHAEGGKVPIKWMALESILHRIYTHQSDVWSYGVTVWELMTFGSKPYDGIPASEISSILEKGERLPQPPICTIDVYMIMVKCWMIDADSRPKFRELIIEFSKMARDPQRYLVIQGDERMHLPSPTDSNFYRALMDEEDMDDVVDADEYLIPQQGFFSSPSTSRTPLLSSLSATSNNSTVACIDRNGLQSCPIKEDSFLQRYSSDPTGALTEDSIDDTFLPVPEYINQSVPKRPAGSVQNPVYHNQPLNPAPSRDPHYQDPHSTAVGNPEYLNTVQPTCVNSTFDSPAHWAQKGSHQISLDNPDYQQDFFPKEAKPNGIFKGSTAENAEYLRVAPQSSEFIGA
Description: as §1, §2
(§3) Binding constants (Kds) were calculated with a standard dose-response curve using the Hill equation: Response=Background+(Signal−Background)/(1+(Kd^Hill Slope/Dose^Hill Slope)). The Hill Slope was set to −1. […]

EGFR (E746-A750del) = EGFR (E746-A750del) (Homo sapiens (Human), UniProt P00533, DEL746-750); experiment: In vitro EGFR (E746-A750del) kinase binding assay (Kd), similar condition
Chain of EGFR (E746-A750del) (P00533 other isoform, or with tags, fused parts or gaps del E746-A750): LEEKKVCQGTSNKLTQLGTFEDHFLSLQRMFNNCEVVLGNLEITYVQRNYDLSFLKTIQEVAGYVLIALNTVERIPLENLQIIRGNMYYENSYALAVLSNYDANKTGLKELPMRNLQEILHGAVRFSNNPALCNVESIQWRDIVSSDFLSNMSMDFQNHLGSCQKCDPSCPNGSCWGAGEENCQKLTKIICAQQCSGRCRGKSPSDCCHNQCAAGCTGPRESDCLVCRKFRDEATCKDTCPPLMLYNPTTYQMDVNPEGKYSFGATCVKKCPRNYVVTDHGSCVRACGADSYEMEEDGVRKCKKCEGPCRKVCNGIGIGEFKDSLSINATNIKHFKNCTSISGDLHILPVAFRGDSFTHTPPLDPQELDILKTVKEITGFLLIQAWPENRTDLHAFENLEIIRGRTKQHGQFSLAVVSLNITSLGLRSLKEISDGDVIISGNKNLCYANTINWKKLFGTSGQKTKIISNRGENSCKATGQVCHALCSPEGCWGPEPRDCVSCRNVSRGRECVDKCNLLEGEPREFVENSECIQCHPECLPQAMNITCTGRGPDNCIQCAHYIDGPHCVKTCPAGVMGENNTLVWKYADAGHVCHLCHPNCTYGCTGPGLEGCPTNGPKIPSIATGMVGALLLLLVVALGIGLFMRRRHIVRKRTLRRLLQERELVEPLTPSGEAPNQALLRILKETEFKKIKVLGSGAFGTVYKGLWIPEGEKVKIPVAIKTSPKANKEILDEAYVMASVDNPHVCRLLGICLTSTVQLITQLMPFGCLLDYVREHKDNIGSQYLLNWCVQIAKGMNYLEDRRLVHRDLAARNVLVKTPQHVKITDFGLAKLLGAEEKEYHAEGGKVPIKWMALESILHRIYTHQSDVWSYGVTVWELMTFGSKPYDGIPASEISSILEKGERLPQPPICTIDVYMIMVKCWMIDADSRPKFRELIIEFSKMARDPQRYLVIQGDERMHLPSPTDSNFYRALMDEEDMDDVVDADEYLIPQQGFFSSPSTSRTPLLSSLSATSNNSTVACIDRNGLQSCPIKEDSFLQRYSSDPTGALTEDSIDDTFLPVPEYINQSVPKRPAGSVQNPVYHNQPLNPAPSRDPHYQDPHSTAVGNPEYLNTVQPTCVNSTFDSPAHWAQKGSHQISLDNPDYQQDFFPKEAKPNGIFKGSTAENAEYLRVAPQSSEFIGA
Description: as §1, §2, §3

Row | SMILES | IC50 (NCI-H1975) | Tumor growth inhibition (TGI, %) in NCI-H1975 xenograft model ([1]; Day 14, 30 mg/kg) | Kd (EGFR (T790M/L858R)) | Kd (EGFR) | Kd (EGFR (E746-A750del)) | Efficacy in the NCI-H1975 xenograft study (in words) [1] | Tumor growth inhibition (TGI, %) in NCI-H1975 xenograft model ([1]; Day 14, 6 mg/kg)
1 | C=CC(=O)Nc1cccc(Nc2nc(Nc3ccc(N4CCN(C(C)=O)CC4)cc3OC)ncc2C(F)(F)F)c1 [CO-1686, reference compound] | 910 nM | TGI = 83% | – | – | – | – | –
2 | C=CC(=O)Nc1cccc(Nc2nc(Nc3ccc(N4CCN(C(C)=O)CC4)cc3)ncc2C(F)(F)F)c1 [Compound 8, N-[3-[[2-[4-(4-acetylpiperazin-1-yl)anilino]-5-(trifluoromethyl)pyrimidin-4-yl]amino]phenyl]prop-2-enamide] | – | TGI = 49% | 0.54 nM | 84 nM | 26 nM | good efficacy | –
3 | C=CC(=O)Nc1cccc(Nc2nc(Nc3ccc(N4CCN(CC)CC4)cc3)ncc2C(F)(F)F)c1 [Compound 9, N-[3-[[2-[4-(4-ethylpiperazin-1-yl)anilino]-5-(trifluoromethyl)pyrimidin-4-yl]amino]phenyl]prop-2-enamide] | < 10 nM | – | 0.037 nM | 15 nM | 4 nM | good efficacy; also recorded: much better tumor growth inhibition compared with CO-1686 | TGI = 76%
4 | C=CC(=O)Nc1cccc(Nc2nc(Nc3ccc(N4CCN(CC)CC4)cc3OC)ncc2C(F)(F)F)c1 [Compound 10, N-[3-[[2-[4-(4-ethylpiperazin-1-yl)-2-methoxy-anilino]-5-(trifluoromethyl)pyrimidin-4-yl]amino]phenyl]prop-2-enamide] | 150 nM | – | 0.28 nM | – | – | – | –
5 | C=CC(=O)Nc1cccc(Oc2nc(Nc3ccc(N4CCN(C)CC4)cc3OC)ncc2Cl)c1 [WZ4002, reference compound] | 67 nM | – | – | – | – | – | –
